Key:
windgrass [1] = experiment: Test Example 4: herbicidal effect by soil treatment (Table 19, symbol L); format: in vivo, windgrass (Apera spica-venti); conditions: amount of applied herbicide 320 g/ha
How it was run: (§1)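 Step 1: sow seeds in sterilized diluvial soil, cover ~1.5 cm. Step 2: spray diluted emulsion onto soil surface at predetermined rate. Step 3: greenhouse, 25–30° C, three weeks. Step 4: grade effect on each plant by earlier criteria.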

persian speedwell [2] = experiment: Test Example 5: herbicidal effect by foliage application, plastic box (Table 20, symbol R); format: in vivo, Persian speedwell (Veronica persica); conditions: foliage application, 320 g/ha, three weeks after application
How it was run: (§2)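 Foliar spray test: emulsion formulation diluted in water to a set application rate, sprayed onto 14-day-old plants raised in diluvial soil at 25° C to 30° C under glass. Both herbicidal effect and crop effect rated visually three weeks later.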

persian speedwell [3] = experiment: Test Example 4: herbicidal effect by soil treatment (Table 19, symbol R); format: in vivo, Persian speedwell (Veronica persica); conditions: amount of applied herbicide 320 g/ha
How it was run: as §1

velvetleaf [4] = experiment: Test Example 4: herbicidal effect by soil treatment (Table 19, symbol M); format: in vivo, velvetleaf (Abutilon theophrasti); conditions: amount of applied herbicide 320 g/ha
How it was run: as §1

green foxtail [5] = experiment: Test Example 4: herbicidal effect by soil treatment (Table 19, symbol G); format: in vivo, green foxtail (Setaria viridis); conditions: amount of applied herbicide 320 g/ha
How it was run: as §1

Japanese bulrush = experiment: Test Example 1: herbicidal activity, application before weed generation under submerged conditions (Table 16, symbol B); format: in vivo, Japanese bulrush (Schoenoplectus juncoides); conditions: 320 g/ha applied herbicide
How it was run: (§3)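 Alluvial soil was flooded to 4 cm depth, weed seeds were sown mixed and 2.5-leaf rice seedlings were transplanted. On sowing day, the compound's emulsion, diluted in water to a set dose, was applied to the water surface. Plants grew at 25–30 °C and were scored 0–5 after three weeks.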

false cleavers [6] = experiment: Test Example 4: herbicidal effect by soil treatment (Table 19, symbol Q); format: in vivo, false cleavers (Galium spurium); conditions: amount of applied herbicide 320 g/ha
How it was run: as §1

chickweed [7] = experiment: Test Example 5: herbicidal effect by foliage application, plastic box (Table 20, symbol P); format: in vivo, common chickweed (Stellaria media); conditions: foliage application, 320 g/ha, three weeks after application
How it was run: as §2

lambsquarters [8] = experiment: Test Example 4: herbicidal effect by soil treatment (Table 19, symbol O); format: in vivo, lambsquarters (Chenopodium album); conditions: amount of applied herbicide 320 g/ha
How it was run: as §1

green foxtail [9] = experiment: Test Example 5: herbicidal effect by foliage application, plastic box (Table 20, symbol G); format: in vivo, green foxtail (Setaria viridis); conditions: foliage application, 320 g/ha, three weeks after application
How it was run: as §2

oval-leafed pondweed = experiment: Test Example 1: herbicidal activity, application before weed generation under submerged conditions (Table 16, symbol C); format: in vivo, oval-leafed pondweed (Monochoria vaginalis); conditions: 320 g/ha applied herbicide
How it was run: as §3

redroot pigweed [10] = experiment: Test Example 4: herbicidal effect by soil treatment (Table 19, symbol N); format: in vivo, redroot pigweed (Amaranthus retroflexus); conditions: amount of applied herbicide 320 g/ha
How it was run: as §1

late watergrass = experiment: Test Example 1: herbicidal activity, application before weed generation under submerged conditions (Table 16, symbol A); format: in vivo, late watergrass (Echinochloa oryzicola); conditions: 320 g/ha applied herbicide
How it was run: as §3

barnyard grass [11] = experiment: Test Example 4: herbicidal effect by soil treatment (Table 19, symbol H); format: in vivo, barnyard grass (Echinochloa crus-galli); conditions: amount of applied herbicide 320 g/ha
How it was run: as §1

wild oat [12] = experiment: Test Example 5: herbicidal effect by foliage application, plastic box (Table 20, symbol I); format: in vivo, wild oat (Avena fatua); conditions: foliage application, 320 g/ha, three weeks after application
How it was run: as §2

Chinese sprangletop = experiment: Test Example 3: herbicidal effect by foliage application, Wagner pot (Table 18, symbol D); format: in vivo, chinese sprangletop (Leptochloa chinensis); conditions: 320 g/ha
How it was run: (§4)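 Plants were sown in alluvial soil held under 0.1–0.5 cm standing water and grown 14 days in a greenhouse at 25–30 °C. An emulsifiable formulation, water-diluted to the set dose, was then sprayed onto the foliage, and effects were scored three weeks later using previously defined criteria.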

wild oat [13] = experiment: Test Example 4: herbicidal effect by soil treatment (Table 19, symbol I); format: in vivo, wild oat (Avena fatua); conditions: amount of applied herbicide 320 g/ha
How it was run: as §1

chickweed [14] = experiment: Test Example 4: herbicidal effect by soil treatment (Table 19, symbol P); format: in vivo, common chickweed (Stellaria media); conditions: amount of applied herbicide 320 g/ha
How it was run: as §1

blackgrass [15] = experiment: Test Example 4: herbicidal effect by soil treatment (Table 19, symbol J); format: in vivo, blackgrass (Alopecurus myosuroides); conditions: amount of applied herbicide 320 g/ha
How it was run: as §1

southern crabgrass [16] = experiment: Test Example 5: herbicidal effect by foliage application, plastic box (Table 20, symbol F); format: in vivo, southern crabgrass (Digitaria ciliaris); conditions: foliage application, 320 g/ha, three weeks after application
How it was run: as §2

Italian ryegrass [17] = experiment: Test Example 5: herbicidal effect by foliage application, plastic box (Table 20, symbol K); format: in vivo, Italian ryegrass (Lolium multiflorum); conditions: foliage application, 320 g/ha, three weeks after application
How it was run: as §2

barnyard grass [18] = experiment: Test Example 3: herbicidal effect by foliage application, Wagner pot (Table 18, symbol H); format: in vivo, barnyard grass (Echinochloa crus-galli); conditions: 320 g/ha
How it was run: as §4

redroot pigweed [19] = experiment: Test Example 5: herbicidal effect by foliage application, plastic box (Table 20, symbol N); format: in vivo, redroot pigweed (Amaranthus retroflexus); conditions: foliage application, 320 g/ha, three weeks after application
How it was run: as §2

false cleavers [20] = experiment: Test Example 5: herbicidal effect by foliage application, plastic box (Table 20, symbol Q); format: in vivo, false cleavers (Galium spurium); conditions: foliage application, 320 g/ha, three weeks after application
How it was run: as §2

lambsquarters [21] = experiment: Test Example 5: herbicidal effect by foliage application, plastic box (Table 20, symbol O); format: in vivo, lambsquarters (Chenopodium album); conditions: foliage application, 320 g/ha, three weeks after application
How it was run: as §2

blackgrass [22] = experiment: Test Example 5: herbicidal effect by foliage application, plastic box (Table 20, symbol J); format: in vivo, blackgrass (Alopecurus myosuroides); conditions: foliage application, 320 g/ha, three weeks after application
How it was run: as §2

windgrass [23] = experiment: Test Example 5: herbicidal effect by foliage application, plastic box (Table 20, symbol L); format: in vivo, windgrass (Apera spica-venti); conditions: foliage application, 320 g/ha, three weeks after application
How it was run: as §2

barnyard grass [24] = experiment: Test Example 5: herbicidal effect by foliage application, plastic box (Table 20, symbol H); format: in vivo, barnyard grass (Echinochloa crus-galli); conditions: foliage application, 320 g/ha, three weeks after application
How it was run: as §2

rice flat sedge = experiment: Test Example 3: herbicidal effect by foliage application, Wagner pot (Table 18, symbol E); format: in vivo, rice flat sedge (Cyperus iria); conditions: 320 g/ha
How it was run: as §4

velvetleaf [25] = experiment: Test Example 5: herbicidal effect by foliage application, plastic box (Table 20, symbol M); format: in vivo, velvetleaf (Abutilon theophrasti); conditions: foliage application, 320 g/ha, three weeks after application
How it was run: as §2

Italian ryegrass [26] = experiment: Test Example 4: herbicidal effect by soil treatment (Table 19, symbol K); format: in vivo, Italian ryegrass (Lolium multiflorum); conditions: amount of applied herbicide 320 g/ha
How it was run: as §1

southern crabgrass [27] = experiment: Test Example 4: herbicidal effect by soil treatment (Table 19, symbol F); format: in vivo, southern crabgrass (Digitaria ciliaris); conditions: amount of applied herbicide 320 g/ha
How it was run: as §1

| Compound | herbicidal effect rating, L: windgrass (windgrass [1]) | herbicidal effect grade, R: persian speedwell (persian speedwell [2]) | herbicidal effect rating, R: persian speedwell (persian speedwell [3]) | herbicidal effect rating, M: velvetleaf (velvetleaf [4]) | herbicidal effect rating, G: green foxtail (green foxtail [5]) | Herbicidal effect on B: Japanese bulrush (grade 0-5) (Japanese bulrush) | herbicidal effect rating, Q: false cleavers (false cleavers [6]) | herbicidal effect grade, P: chickweed (chickweed [7]) | herbicidal effect rating, O: lambsquarters (lambsquarters [8]) | herbicidal effect grade, G: green foxtail (green foxtail [9]) | Herbicidal effect on C: oval-leafed pondweed (grade 0-5) (oval-leafed pondweed) | herbicidal effect rating, N: redroot pigweed (redroot pigweed [10]) | Herbicidal effect on A: late watergrass (grade 0-5) (late watergrass) | herbicidal effect rating, H: barnyard grass (barnyard grass [11]) | herbicidal effect grade, I: wild oat (wild oat [12]) | herbicidal effect on D (Chinese sprangletop), rating 0-5 (Chinese sprangletop) | herbicidal effect rating, I: wild oat (wild oat [13]) | herbicidal effect rating, P: chickweed (chickweed [14]) | herbicidal effect rating, J: blackgrass (blackgrass [15]) | herbicidal effect grade, F: southern crabgrass (southern crabgrass [16]) | further results |
| --- | --- | --- | --- | --- | --- | --- | --- | --- | --- | --- | --- | --- | --- | --- | --- | --- | --- | --- | --- | --- | --- |
| CCCCc1ccc(-c2sc3ccccc3c2-c2c(O)c(C)nn(C)c2=O)cc1 [1-005] | 0 (Herbicidal rate of 5% or less (almost no effect)) | 5 (Herbicidal rate of 90% or more (almost completely withered)) | 4 (Herbicidal rate of 70% or more and less than 90%) | 0 (Herbicidal rate of 5% or less (almost no effect)) | 0 (Herbicidal rate of 5% or less (almost no effect)) | 0 (Herbicidal rate of 5% or less (almost no effect)) | 0 (Herbicidal rate of 5% or less (almost no effect)) | 5 (Herbicidal rate of 90% or more (almost completely withered)) | 0 (Herbicidal rate of 5% or less (almost no effect)) | 0 (Herbicidal rate of 5% or less (almost no effect)) | 0 (Herbicidal rate of 5% or less (almost no effect)) | 0 (Herbicidal rate of 5% or less (almost no effect)) | 2 (Herbicidal rate of 20% or more and less than 40%) | 0 (Herbicidal rate of 5% or less (almost no effect)) | 0 (Herbicidal rate of 5% or less (almost no effect)) | 0 (Herbicidal rate of 5% or less (almost no effect)) | 0 (Herbicidal rate of 5% or less (almost no effect)) | 0 (Herbicidal rate of 5% or less (almost no effect)) | 0 (Herbicidal rate of 5% or less (almost no effect)) | 0 (Herbicidal rate of 5% or less (almost no effect)) | herbicidal effect grade, K: Italian ryegrass (Italian ryegrass [17]): 0 (Herbicidal rate of 5% or less (almost no effect)); herbicidal effect on H (barnyard grass), rating 0-5 (barnyard grass [18]): 4 (Herbicidal rate of 70% or more and less than 90%); herbicidal effect grade, N: redroot pigweed (redroot pigweed [19]): 4 (Herbicidal rate of 70% or more and less than 90%); herbicidal effect grade, Q: false cleavers (false cleavers [20]): 0 (Herbicidal rate of 5% or less (almost no effect)); herbicidal effect grade, O: lambsquarters (lambsquarters [21]): 5 (Herbicidal rate of 90% or more (almost completely withered)); herbicidal effect grade, J: blackgrass (blackgrass [22]): 0 (Herbicidal rate of 5% or less (almost no effect)); herbicidal effect grade, L: windgrass (windgrass [23]): 0 (Herbicidal rate of 5% or less (almost no effect)); herbicidal effect grade, H: barnyard grass (barnyard grass [24]): 0 (Herbicidal rate of 5% or less (almost no effect)); herbicidal effect on E (rice flat sedge), rating 0-5 (rice flat sedge): 5 (Herbicidal rate of 90% or more (almost completely withered)); herbicidal effect grade, M: velvetleaf (velvetleaf [25]): 3 (Herbicidal rate of 40% or more and less than 70%); herbicidal effect rating, K: Italian ryegrass (Italian ryegrass [26]): 0 (Herbicidal rate of 5% or less (almost no effect)); herbicidal effect rating, F: southern crabgrass (southern crabgrass [27]): 0 (Herbicidal rate of 5% or less (almost no effect)) |
| CCCCc1ccc(-c2sc3ccccc3c2-c2c(OC(=O)CCC)c(C)nn(C)c2=O)cc1 [1-006] | 0 (Herbicidal rate of 5% or less (almost no effect)) | 5 (Herbicidal rate of 90% or more (almost completely withered)) | 3 (Herbicidal rate of 40% or more and less than 70%) | 0 (Herbicidal rate of 5% or less (almost no effect)) | 0 (Herbicidal rate of 5% or less (almost no effect)) | 1 (Herbicidal rate of 5% or more and less than 20%) | 0 (Herbicidal rate of 5% or less (almost no effect)) | 5 (Herbicidal rate of 90% or more (almost completely withered)) | 4 (Herbicidal rate of 70% or more and less than 90%) | 0 (Herbicidal rate of 5% or less (almost no effect)) | 0 (Herbicidal rate of 5% or less (almost no effect)) | 0 (Herbicidal rate of 5% or less (almost no effect)) | 3 (Herbicidal rate of 40% or more and less than 70%) | 0 (Herbicidal rate of 5% or less (almost no effect)) | 0 (Herbicidal rate of 5% or less (almost no effect)) | 0 (Herbicidal rate of 5% or less (almost no effect)) | 0 (Herbicidal rate of 5% or less (almost no effect)) | 0 (Herbicidal rate of 5% or less (almost no effect)) | 0 (Herbicidal rate of 5% or less (almost no effect)) | 0 (Herbicidal rate of 5% or less (almost no effect)) | herbicidal effect grade, K: Italian ryegrass (Italian ryegrass [17]): 0 (Herbicidal rate of 5% or less (almost no effect)); herbicidal effect on H (barnyard grass), rating 0-5 (barnyard grass [18]): 3 (Herbicidal rate of 40% or more and less than 70%); herbicidal effect grade, N: redroot pigweed (redroot pigweed [19]): 5 (Herbicidal rate of 90% or more (almost completely withered)); herbicidal effect grade, Q: false cleavers (false cleavers [20]): 0 (Herbicidal rate of 5% or less (almost no effect)); herbicidal effect grade, O: lambsquarters (lambsquarters [21]): 4 (Herbicidal rate of 70% or more and less than 90%); herbicidal effect grade, J: blackgrass (blackgrass [22]): 0 (Herbicidal rate of 5% or less (almost no effect)); herbicidal effect grade, L: windgrass (windgrass [23]): 0 (Herbicidal rate of 5% or less (almost no effect)); herbicidal effect grade, H: barnyard grass (barnyard grass [24]): 0 (Herbicidal rate of 5% or less (almost no effect)); herbicidal effect on E (rice flat sedge), rating 0-5 (rice flat sedge): 5 (Herbicidal rate of 90% or more (almost completely withered)); herbicidal effect grade, M: velvetleaf (velvetleaf [25]): 4 (Herbicidal rate of 70% or more and less than 90%); herbicidal effect rating, K: Italian ryegrass (Italian ryegrass [26]): 0 (Herbicidal rate of 5% or less (almost no effect)); herbicidal effect rating, F: southern crabgrass (southern crabgrass [27]): 0 (Herbicidal rate of 5% or less (almost no effect)) |

Reference: patent US20230085307A1, “PYRIDAZINONE COMPOUND AND HERBICIDE” (NISSAN CHEMICAL CORPORATION, priority 2019, published 2023)
